This is an account of results in article PMC6934184, “Selective DNA-PKcs inhibition extends the therapeutic index of localized radiotherapy and chemotherapy” (The Journal of Clinical Investigation, 2019).

The experiment concerns the target T1, NEK2 (Homo sapiens, UniProt P51955).
T1 construct: purchased Thermo Fisher Scientific (Life Technologies) SelectScreen
In words: SelectScreen Z'LYTE. The experiment is classed as biochemical. The gist of the method:
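Percent values come from Thermo SelectScreen profiling of NU5455, combining activity and binding assays. CSF1R was run in Z'LYTE format at Km app ATP, and CAMK1 in Adapta format with ATP listed at 10.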

T1 sequence (P51955 whole entry): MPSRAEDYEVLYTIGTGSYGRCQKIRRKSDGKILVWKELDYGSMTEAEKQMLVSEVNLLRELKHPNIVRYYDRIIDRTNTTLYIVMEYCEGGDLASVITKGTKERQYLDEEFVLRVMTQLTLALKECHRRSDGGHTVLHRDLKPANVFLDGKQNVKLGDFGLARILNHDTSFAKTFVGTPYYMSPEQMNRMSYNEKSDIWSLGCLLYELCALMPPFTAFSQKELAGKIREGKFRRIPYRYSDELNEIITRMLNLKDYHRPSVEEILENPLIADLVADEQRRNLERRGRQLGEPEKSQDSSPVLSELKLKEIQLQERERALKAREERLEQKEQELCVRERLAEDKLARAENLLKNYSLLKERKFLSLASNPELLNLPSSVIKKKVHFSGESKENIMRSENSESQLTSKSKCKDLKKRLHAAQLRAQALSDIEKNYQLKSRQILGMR

For orientation: inhibition means the drop in the measured response relative to a control, in per cent. A high value points to strong suppression. Regarding `CN(C(=O)CN1CCOCC1)c1ccc2sc3c(-c4cccc5c(=O)cc(N6CC7CCC(C6)O7)oc45)cccc3c2c1` [NU5455], the inhibition at 1 µM was found to be 17.8%.
